Converted amounts (≈) assume the structure as drawn. Where two headings read alike, the source gives them in different places. Values belong to the compound of their own block, whether it stands above or below them.
Columns and labels:
[1] = tested on: E. coli GC 2236; experiment: MIC, broth microdilution; settings: Escherichia coli
[2] = tested on: E. coli GC 2233; experiment: MIC, broth microdilution; settings: Escherichia coli
[3] = tested on: E. coli GC 2234; experiment: MIC, broth microdilution; settings: Escherichia coli
[4] = tested on: E. coli GC 2272; experiment: MIC, broth microdilution; settings: Escherichia coli
[5] = tested on: E. coli GC 6465; experiment: MIC, broth microdilution; settings: Escherichia coli
[6] = tested on: E. coli GC 1073; experiment: MIC, broth microdilution; settings: Escherichia coli
[7] = tested on: S. aureus GC 1131; experiment: MIC, broth microdilution; settings: Staphylococcus aureus
[8] = tested on: S. aureus GC 6466; experiment: MIC, broth microdilution; settings: Staphylococcus aureus
[9] = tested on: S. aureus GC 1079; experiment: MIC, broth microdilution; settings: Staphylococcus aureus
[10] = tested on: S. aureus GC 4536; experiment: MIC, broth microdilution; settings: Staphylococcus aureus
[11] = tested on: S. aureus GC 6469; experiment: MIC, broth microdilution; settings: Staphylococcus aureus
[12] = tested on: S. epidermidis GC 4935; experiment: MIC, broth microdilution; settings: Staphylococcus epidermidis
[13] = tested on: E. faecalis GC 4555; experiment: MIC, broth microdilution; settings: Enterococcus faecalis
[14] = tested on: E. faecalis GC 2265; experiment: MIC, broth microdilution; settings: Enterococcus faecalis
[15] = tested on: E. faecium GC 2243; experiment: MIC, broth microdilution; settings: Enterococcus faecium
[16] = tested on: S. pneumoniae+ GC 4465; experiment: MIC, broth microdilution; settings: Streptococcus pneumoniae
[17] = tested on: S. pyogenes GC 4563; experiment: MIC, broth microdilution; settings: Streptococcus pyogenes
[18] = tested on: c. albicans GC 3066; experiment: MIC, broth microdilution; settings: for MIC: Candida albicans, GC3066, read-out: MINIMAL INHIBITORY CONCENTRATION MIC; for MINIMAL INHIBITORY CONCENTRATION MIC: pre-incubated in Water
[19] = tested on: E. coli; experiment: Range of MIC for E. coli strains; settings: Escherichia coli
[20] = tested on: Staph.; experiment: Range of MIC for Staph. strains, including MRSA; settings: Staphylococcus aureus, MRSA
[21] = GC2236, read-out: MINIMAL INHIBITORY CONCENTRATION MIC, pre-incubated in Mouse Serum
[22] = GC2236, read-out: MINIMAL INHIBITORY CONCENTRATION MIC, pre-incubated in Water
[23] = GC2233, read-out: MINIMAL INHIBITORY CONCENTRATION MIC, pre-incubated in Mouse Serum
[24] = GC2233, read-out: MINIMAL INHIBITORY CONCENTRATION MIC, pre-incubated in Water
[25] = GC2234, read-out: MINIMAL INHIBITORY CONCENTRATION MIC, pre-incubated in Mouse Serum
[26] = GC2234, read-out: MINIMAL INHIBITORY CONCENTRATION MIC, pre-incubated in Water
[27] = GC2272, read-out: MINIMAL INHIBITORY CONCENTRATION MIC, pre-incubated in Mouse Serum
[28] = GC2272, read-out: MINIMAL INHIBITORY CONCENTRATION MIC, pre-incubated in Water
[29] = GC6465, read-out: MINIMAL INHIBITORY CONCENTRATION MIC, pre-incubated in Mouse Serum
[30] = GC6465, read-out: MINIMAL INHIBITORY CONCENTRATION MIC, pre-incubated in Water
[31] = GC1073, read-out: MINIMAL INHIBITORY CONCENTRATION MIC, pre-incubated in Mouse Serum
[32] = GC1073, read-out: MINIMAL INHIBITORY CONCENTRATION MIC, pre-incubated in Water
[33] = GC1131, read-out: MINIMAL INHIBITORY CONCENTRATION MIC, pre-incubated in Mouse Serum
[34] = GC1131, read-out: MINIMAL INHIBITORY CONCENTRATION MIC, pre-incubated in Water
[35] = GC6466, read-out: MINIMAL INHIBITORY CONCENTRATION MIC, pre-incubated in Mouse Serum
[36] = GC6466, read-out: MINIMAL INHIBITORY CONCENTRATION MIC, pre-incubated in Water
[37] = GC1079, read-out: MINIMAL INHIBITORY CONCENTRATION MIC, pre-incubated in Mouse Serum
[38] = GC1079, read-out: MINIMAL INHIBITORY CONCENTRATION MIC, pre-incubated in Water
[39] = GC4536, read-out: MINIMAL INHIBITORY CONCENTRATION MIC, pre-incubated in Mouse Serum
[40] = GC4536, read-out: MINIMAL INHIBITORY CONCENTRATION MIC, pre-incubated in Water
[41] = GC6469, read-out: MINIMAL INHIBITORY CONCENTRATION MIC, pre-incubated in Mouse Serum
[42] = GC6469, read-out: MINIMAL INHIBITORY CONCENTRATION MIC, pre-incubated in Water
[43] = GC4935, read-out: MINIMAL INHIBITORY CONCENTRATION MIC, pre-incubated in Mouse Serum
[44] = GC4935, read-out: MINIMAL INHIBITORY CONCENTRATION MIC, pre-incubated in Water
[45] = GC4555, read-out: MINIMAL INHIBITORY CONCENTRATION MIC, pre-incubated in Mouse Serum
[46] = GC4555, read-out: MINIMAL INHIBITORY CONCENTRATION MIC, pre-incubated in Water
[47] = GC2265, read-out: MINIMAL INHIBITORY CONCENTRATION MIC, pre-incubated in Mouse Serum
[48] = GC2265, read-out: MINIMAL INHIBITORY CONCENTRATION MIC, pre-incubated in Water
[49] = GC2243, read-out: MINIMAL INHIBITORY CONCENTRATION MIC, pre-incubated in Mouse Serum
[50] = GC2243, read-out: MINIMAL INHIBITORY CONCENTRATION MIC, pre-incubated in Water
[51] = read-out: MINIMAL INHIBITORY CONCENTRATION MIC, pre-incubated in Mouse Serum
[52] = read-out: MINIMAL INHIBITORY CONCENTRATION MIC, pre-incubated in Water
[53] = GC4563, read-out: MINIMAL INHIBITORY CONCENTRATION MIC, pre-incubated in Mouse Serum
[54] = GC4563, read-out: MINIMAL INHIBITORY CONCENTRATION MIC, pre-incubated in Water
[55] = 20 h, read-out: Range of MIC, E. coli (Mouse Serum)
[56] = read-out: Range of MIC, E. coli (Water)
[57] = read-out: Range of MIC, Staph (Mouse Serum)

MIC [1, 21]: 2 µg/mL (≈ 2.6 µM)
MIC [1, 22]: > 64 µg/mL
MIC [2, 23]: 2 µg/mL (≈ 2.6 µM)
MIC [2, 24]: > 64 µg/mL
MIC [3, 25]: 1 µg/mL (≈ 1.3 µM)
MIC [3, 26]: > 64 µg/mL
MIC [4, 27]: 1 µg/mL (≈ 1.3 µM)
MIC [4, 28]: > 64 µg/mL
MIC [5, 29]: 4 µg/mL (≈ 5.2 µM)
MIC [5, 30]: > 64 µg/mL
MIC [6, 31]: 1 µg/mL (≈ 1.3 µM)
MIC [6, 32]: > 64 µg/mL
MIC [7, 33]: 1 µg/mL (≈ 1.3 µM)
MIC [7, 34]: 2 µg/mL (≈ 2.6 µM)
MIC [8, 35]: 0.25 µg/mL (≈ 0.325 µM)
MIC [8, 36]: 0.5 µg/mL (≈ 0.649 µM)
MIC [9, 37]: 2 µg/mL (≈ 2.6 µM)
MIC [9, 38]: 4 µg/mL (≈ 5.2 µM)
MIC [10, 39]: 1 µg/mL (≈ 1.3 µM)
MIC [10, 40]: 2 µg/mL (≈ 2.6 µM)
MIC [11, 41]: 4 µg/mL (≈ 5.2 µM)
MIC [11, 42]: 4 µg/mL (≈ 5.2 µM)
MIC [12, 43]: 2 µg/mL (≈ 2.6 µM)
MIC [12, 44]: 4 µg/mL (≈ 5.2 µM)
MIC [13, 45]: 1 µg/mL (≈ 1.3 µM)
MIC [13, 46]: 4 µg/mL (≈ 5.2 µM)
MIC [14, 47]: 1 µg/mL (≈ 1.3 µM)
MIC [14, 48]: 4 µg/mL (≈ 5.2 µM)
MIC [15, 49]: 0.5 µg/mL (≈ 0.649 µM)
MIC [15, 50]: 4 µg/mL (≈ 5.2 µM)
MIC [16, 51]: 4 µg/mL (≈ 5.2 µM)
MIC [16, 52]: 8 µg/mL (≈ 10.4 µM)
MIC [17, 53]: 0.12 µg/mL (≈ 0.156 µM)
MIC [17, 54]: 0.25 µg/mL (≈ 0.325 µM)
MIC [18]: > 64 µg/mL
MINIMAL INHIBITORY CONCENTRATION MIC [18]: >64 UG/ML
MIC [19, 55]: 1 to 8 µg/mL (≈ 1.3 to 10.4 µM)
MIC ([19]; read-out: Minimum inhibitory concentration (MIC), E. coli (mouse serum)): 1 to 8 µg/mL (≈ 1.3 to 10.4 µM)
MIC ([19]; read-out: Minimum inhibitory concentration (MIC), E. coli (water)): > 64 µg/mL
MIC [19, 56]: > 64 µg/mL
MIC ([20]; read-out: Minimum inhibitory concentration (MIC), Staph. (mouse serum)): 0.25 to 4 µg/mL (≈ 0.325 to 5.2 µM)
MIC ([20]; read-out: Minimum inhibitory concentration (MIC), Staph. (water)): 0.5 to 8 µg/mL (≈ 0.649 to 10.4 µM)
MIC [20, 57]: 0.25 to 4 µg/mL (≈ 0.325 to 5.2 µM)
MIC ([20]; read-out: Range of MIC, Staph (Water)): 0.5 to 8 µg/mL (≈ 0.649 to 10.4 µM)
Compound: CCCCN(CC(=O)Nc1cc(N(C)C)c2c(c1O)C(=O)C1=C(O)[C@]3(O)C(=O)C(C(N)=O)=C(O)[C@@H](N(C)C)[C@@H]3C[C@@H]1C2)C(=O)OCOC(=O)c1cccs1 [Example 23, ({[(2-{[(5aR,6aS,7S,10aS)-9-(aminocarbonyl)-4,7-bis(dimethylamino)-1,8,10a,11-tetrahydroxy-10,12-dioxo-5,5a,6,6a,7,10,10a,12-octahydrotetracen-2-yl]amino}-2-oxoethyl)(butyl)amino]carbonyl}oxy)methyl thiophene-2-carboxylate]

MIC [1, 21]: 1 µg/mL (≈ 1.21 µM)
MIC [1, 22]: > 64 µg/mL
MIC [2, 23]: 1 µg/mL (≈ 1.21 µM)
MIC [2, 24]: > 64 µg/mL
MIC [3, 25]: 0.5 µg/mL (≈ 0.605 µM)
MIC [3, 26]: > 64 µg/mL
MIC [4, 27]: 1 µg/mL (≈ 1.21 µM)
MIC [4, 28]: > 64 µg/mL
MIC [5, 29]: 8 µg/mL (≈ 9.69 µM)
MIC [5, 30]: > 64 µg/mL
MIC [6, 31]: 1 µg/mL (≈ 1.21 µM)
MIC [6, 32]: > 64 µg/mL
MIC [7, 33]: 1 µg/mL (≈ 1.21 µM)
MIC [7, 34]: 2 µg/mL (≈ 2.42 µM)
MIC [8, 35]: 0.25 µg/mL (≈ 0.303 µM)
MIC [8, 36]: 0.5 µg/mL (≈ 0.605 µM)
MIC [9, 37]: 2 µg/mL (≈ 2.42 µM)
MIC [9, 38]: 64 µg/mL (≈ 77.5 µM)
MIC [10, 39]: 1 µg/mL (≈ 1.21 µM)
MIC [10, 40]: 4 µg/mL (≈ 4.84 µM)
MIC [11, 41]: 4 µg/mL (≈ 4.84 µM)
MIC [11, 42]: > 64 µg/mL
MIC [12, 43]: 2 µg/mL (≈ 2.42 µM)
MIC [12, 44]: 16 µg/mL (≈ 19.4 µM)
MIC [13, 45]: 1 µg/mL (≈ 1.21 µM)
MIC [13, 46]: 64 µg/mL (≈ 77.5 µM)
MIC [14, 47]: 2 µg/mL (≈ 2.42 µM)
MIC [14, 48]: 32 µg/mL (≈ 38.7 µM)
MIC [15, 49]: 0.5 µg/mL (≈ 0.605 µM)
MIC [15, 50]: 2 µg/mL (≈ 2.42 µM)
MIC [16, 51]: 2 µg/mL (≈ 2.42 µM)
MIC [16, 52]: 1 µg/mL (≈ 1.21 µM)
MIC [17, 53]: < 0.06 µg/mL
MIC [17, 54]: < 0.06 µg/mL
MIC [18]: > 64 µg/mL
MINIMAL INHIBITORY CONCENTRATION MIC [18]: >64 UG/ML
MIC [19, 55]: 0.5 to 2 µg/mL (≈ 0.605 to 2.42 µM)
MIC [19, 56]: > 64 µg/mL
MIC ([19]; read-out: Range of MIC, E. coli (mouse serum)): 0.5 to 2 µg/mL (≈ 0.605 to 2.42 µM)
MIC ([19]; read-out: Range of MIC, E. coli (water)): > 64 µg/mL
MIC [20, 57]: 0.25 to 4 µg/mL (≈ 0.303 to 4.84 µM)
MIC ([20]; read-out: Range of MIC, Staph. (mouse serum)): 0.25 to 4 µg/mL (≈ 0.303 to 4.84 µM)
Compound: CCCN(CC(=O)Nc1cc(N(C)C)c2c(c1O)C(=O)C1=C(O)[C@]3(O)C(=O)C(C(N)=O)=C(O)[C@@H](N(C)C)[C@@H]3C[C@@H]1C2)C(=O)OCOC(=O)c1ccc(-c2ccccc2)cc1 [Example 24, ({[(2-{[(5aR,6aS,7S,10aS)-9-(aminocarbonyl)-4,7-bis(dimethylamino)-1,8,10a,11-tetrahydroxy-10,12-dioxo-5,5a,6,6a,7,10,10a,12-octahydrotetracen-2-yl]amino}-2-oxoethyl)(propyl)amino]carbonyl}oxy)methyl 1,1′-biphenyl-4-carboxylate]

From patent US20070049564A1 (Wyeth, priority 2005, published 2007)
